Reference: patent publication US11713335B2, “Aminocoumarin compounds and methods of their use” (President and Fellows of Harvard College, priority 2018, dated 2023)
Converted amounts (≈) assume the structure as drawn. Where two headings read alike, the source gives them in different places.

How the values were obtained:
WT E. coli = assay: Minimal inhibitory concentration in wild-type E. coli; type: cell-based, Escherichia coli; conditions: wild-type E. coli, 37° C., 16 hours, read-out: MIC (μM) in WT E. coli
Protocol: General Procedure for Determination of Minimal Inhibitory Concentrations
Overnight cultures (5 mL) of bacterial strains were grown in LB media or TSA media (for S. aureus) at 37° C. and with shaking at 220 rpm until saturation. The overnight culture was diluted serially 1:100 (50 μL in 5 mL sterile media) and then 1:100 (250 μL in 25 mL sterile media). The 25 mL of diluted culture was then dispensed to a sterile 96 well plate (Corning #3370). 198 μL of culture were dispensed into row A and 100 μL of this culture were dispensed into rows B-H. Aminocoumarin compound (DMSO stock) were added to the first row and then the row was mixed by pipetting. 100 μL of culture from row A were transferred to row B and the serial dilution continued until the final 100 μL from row H were discarded. The plate was incubated without shaking in a 37° C. for 16 hours and then read by visible light spectrophotometer (Molecular Devices) at 600 nm. The minimal inhibitory concentration (MIC) was determined as the lowest concentration of compound concentration that inhibited the growth of bacteria.

S. aureus RN4220 = assay: Minimal inhibitory concentration, S. aureus RN4220; type: cell-based; conditions: read-out: MIC (μM) S. aureus RN4220
Method in brief: (§1)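 MICs (µM) correspond to the lowest concentration stopping bacterial growth, judged by visible-light absorbance at 600 nm following a 16 h static incubation at 37 °C. Compounds were titrated twofold into doubly 1:100-diluted saturated cultures.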

S. aureus MW2 = assay: Minimal inhibitory concentration, S. aureus MW2; type: cell-based; conditions: read-out: MIC (μM) S. aureus MW2 (MRSA)
Method in brief: as §1

E. cloacae 13047 = assay: Minimal inhibitory concentration, E. cloacae 13047; type: cell-based; conditions: read-out: MIC (μM) E. cloacae 13047
Method in brief: as §1

A. baumannii 19606 = assay: Minimal inhibitory concentration, A. baumannii 19606; type: cell-based; conditions: read-out: MIC (μM) A. baumannii 19606
Method in brief: as §1

K. pneumoniae 700721 = assay: Minimal inhibitory concentration, K. pneumoniae 700721; type: cell-based; conditions: read-out: MIC (μM) K. pneumoniae 700721
Method in brief: as §1

E. coli MC4100 = assay: Minimal inhibitory concentration, E. coli MC4100; type: cell-based; conditions: read-out: MIC (μM) E. coli MC4100 ara+
Method in brief: as §1

E. coli 25922 = assay: Minimal inhibitory concentration, E. coli 25922; type: cell-based; conditions: read-out: MIC (μM) E. coli 25922
Method in brief: as §1

[1] = Staphylococcus aureus, RN4220, 16 h, 16 hour minimal inhibitory concentration at 37° C.
[2] = Staphylococcus aureus, MRSA, 16 h, 16 hour minimal inhibitory concentration at 37° C.
[3] = Enterobacter cloacae, 13047, 16 hour minimal inhibitory concentration at 37° C.
[4] = Acinetobacter baumannii, 19606, 16 h, 16 hour minimal inhibitory concentration at 37° C.
[5] = Klebsiella pneumoniae, 700721, 16 hour minimal inhibitory concentration at 37° C.
[6] = Escherichia coli, MC4100, 16 h, 16 hour minimal inhibitory concentration at 37° C.
[7] = Escherichia coli, 25922, 16 h, 16 hour minimal inhibitory concentration at 37° C.
[8] = 16 hour minimal inhibitory concentration at 37° C.

Row | SMILES | MIC (S. aureus RN4220; [1]) [µM] | MIC (S. aureus MW2; [2]) [µM] | MIC (E. cloacae 13047; [3]) [µM] | MIC (A. baumannii 19606; [4]) [µM] | MIC (K. pneumoniae 700721; [5]) [µM] | MIC (E. coli MC4100; [6]) [µM] | MIC (E. coli 25922; [7]) [µM] | other results
1 | CO[C@@H]1[C@@H](OC(N)=O)[C@@H](O)[C@H](Oc2ccc3c(O)c(NC(=O)c4cccc(-c5cn[nH]c5)c4)c(=O)oc3c2C)OC1(C)C [Compound 18] | – | – | – | – | – | – | – | MIC (WT E. coli): >300 µM
2 | CO[C@@H]1[C@@H](OC(N)=O)[C@@H](O)[C@H](Oc2ccc3c(O)c(NC(=O)c4ccc(C)o4)c(=O)oc3c2C)OC1(C)C [Compound 12] | – | – | – | – | – | – | – | MIC (WT E. coli): >300 µM
3 | CO[C@@H]1[C@H](OC(N)=O)C(O)[C@H](Oc2ccc3c(O)c(NS(=O)(=O)c4cccc(-c5ccccc5)c4)c(=O)oc3c2C)OC1(C)C (stereo partly drawn) [Compound 36] | – | – | – | – | – | – | – | MIC (WT E. coli; Escherichia coli): > 300 µM
4 | CO[C@@H]1[C@@H](OC(N)=O)[C@@H](O)[C@H](Oc2ccc3c(O)c(NC(=O)c4ccc(O)c(C/C=C/CC(=O)O)c4)c(=O)oc3c2C)OC1(C)C [Compound 80] | – | – | – | – | – | – | – | MIC (WT E. coli): >300 µM
5 | CO[C@@H]1[C@@H](OC(N)=O)[C@@H](O)[C@H](Oc2ccc3c(O)c(NC(=O)c4cccc(-c5cccc(Br)c5)c4)c(=O)oc3c2C)OC1(C)C [Compound 234] | 0.73 (≈ 0.499 µg/mL) | 0.46 (≈ 0.314 µg/mL) | > 100 | 18 (≈ 12.3 µg/mL) | > 100 | 18 (≈ 12.3 µg/mL) | 18 (≈ 12.3 µg/mL) | –
6 | CO[C@@H]1[C@@H](OC(N)=O)[C@@H](O)[C@H](Oc2ccc3c(OCc4ccccc4)c(NC(=O)c4ccc(O)c(CC=C(C)C)c4)c(=O)oc3c2C)OC1(C)C [Compound 211] | > 100 | > 100 | > 100 | > 50 | > 100 | > 200 | > 200 | –
7 | CO[C@@H]1[C@@H](OC(N)=O)[C@@H](O)[C@H](Oc2ccc3c(O)c(NC(=O)c4cccc(Oc5cccc(C)c5)c4)c(=O)oc3c2C)OC1(C)C [Compound 247] | 10 (≈ 6.35 µg/mL) | 5 (≈ 3.17 µg/mL) | > 100 | > 50 | > 100 | 18 (≈ 11.4 µg/mL) | 39 (≈ 24.8 µg/mL) | –
8 | COc1cccc(-c2cccc(C(=O)Nc3c(O)c4ccc(O[C@@H]5OC(C)(C)[C@H](OC)[C@@H](OC(N)=O)[C@H]5O)c(C)c4oc3=O)c2)c1 [Compound 103] | – | – | – | – | – | – | – | MIC (S. aureus RN4220; [8]): 36 µM (≈ 22.8 µg/mL); MIC (S. aureus MW2; [8]): 36 µM (≈ 22.8 µg/mL); MIC (E. cloacae 13047; [8]): >100 µM; MIC (A. baumannii 19606; [8]): 9 µM (≈ 5.71 µg/mL); MIC (K. pneumoniae 700721; [8]): >100 µM; MIC (E. coli MC4100; [8]): >200 µM; MIC (E. coli 25922; [8]): >200 µM
9 | CO[C@@H]1[C@@H](OC(N)=O)[C@@H](O)[C@H](Oc2ccc3c(O)c(NC(=O)c4cc(Oc5ccccc5)c(O)cc4O)c(=O)oc3c2C)OC1(C)C [Compound 244] | 19 (≈ 12.4 µg/mL) | 19 (≈ 12.4 µg/mL) | > 100 | > 50 | 38 (≈ 24.8 µg/mL) | 4.8 (≈ 3.13 µg/mL) | 38 (≈ 24.8 µg/mL) | –
10 | CO[C@@H]1[C@@H](OC(N)=O)[C@@H](O)[C@H](Oc2ccc3c(O)c(NC(=O)OC(C)(C)C)c(=O)oc3c2C)OC1(C)C [Compound 209] | > 100 | > 100 | > 100 | > 50 | > 100 | > 200 | > 200 | –
11 | CO[C@@H]1[C@@H](OC(N)=O)[C@@H](O)[C@H](Oc2ccc3c(O)c(NC(=O)c4ccnc(Oc5ccccc5)c4)c(=O)oc3c2C)OC1(C)C [Compound 237] | > 100 | > 100 | > 100 | > 50 | > 100 | > 100 | > 200 | –
12 | CO[C@@H]1[C@@H](OC(N)=O)[C@@H](O)[C@H](Oc2ccc3c(O)c(NC(=O)c4ccc5c(c4)oc4ccccc45)c(=O)oc3c2C)OC1(C)C [Compound 250] | 10 (≈ 6.19 µg/mL) | 10 (≈ 6.19 µg/mL) | > 100 | > 50 | > 100 | > 100 | > 200 | –
13 | CO[C@@H]1[C@@H](OC(N)=O)[C@@H](O)[C@H](Oc2ccc3c(O)c(NC(=O)c4cccc(Oc5cccc(Cl)c5)c4)c(=O)oc3c2C)OC1(C)C [Compound 245] | 10 (≈ 6.55 µg/mL) | 19 (≈ 12.4 µg/mL) | > 100 | > 50 | > 100 | 38 (≈ 24.9 µg/mL) | 76 (≈ 49.8 µg/mL) | –
14 | CO[C@@H]1[C@@H](OC(=O)c2ccc(C)[nH]2)[C@@H](O)[C@H](Oc2ccc3c(O)c(NC(=O)c4ccc(O)c(CC=C(C)C)c4)c(=O)oc3c2C)OC1(C)C [Compound 112] | – | – | – | – | – | – | – | MIC (S. aureus RN4220; Staphylococcus aureus, RN4220, 16 h): < 0.01 µM; MIC (S. aureus MW2; Staphylococcus aureus, MRSA, 16 h): < 0.01 µM; MIC (E. cloacae 13047; Enterobacter cloacae, 13047, 16 h): > 100 µM; MIC (A. baumannii 19606; Acinetobacter baumannii, 19606, 16 h): < 0.11 µM; MIC (K. pneumoniae 700721; Klebsiella pneumoniae, 700721, 16 h): 37 µM (≈ 25 µg/mL); MIC (E. coli MC4100; Escherichia coli, MC4100, 16 h): 74 µM (≈ 50.1 µg/mL); MIC (E. coli 25922; Escherichia coli, 25922, 16 h): 18.5 µM (≈ 12.5 µg/mL)
15 | CCCOCCOCC#Cc1ccc(C(=O)Nc2c(O)c3ccc(O[C@@H]4OC(C)(C)[C@H](OC)[C@@H](OC(N)=O)[C@H]4O)c(C)c3oc2=O)cc1 [Compound 226] | > 100 | > 100 | > 100 | > 50 | > 100 | > 200 | > 200 | –
16 | COc1ccc(C(=O)Nc2c(O)c3ccc(O[C@@H]4OC(C)(C)[C@H](OC)[C@@H](OC(N)=O)[C@H]4O)c(C)c3oc2=O)cc1Oc1ccccc1 [Compound 256] | 19 (≈ 12.4 µg/mL) | 19 (≈ 12.4 µg/mL) | > 100 | > 50 | 19 (≈ 12.4 µg/mL) | 10 (≈ 6.51 µg/mL) | 10 (≈ 6.51 µg/mL) | –
17 | CCCNC(=O)O[C@H]1[C@H](Oc2ccc3c(O)c(NC(=O)c4ccc(O)c(CC=C(C)C)c4)c(=O)oc3c2C)OC(C)(C)[C@H](OC)[C@H]1O [Compound 109] | – | – | – | – | – | – | – | MIC (S. aureus RN4220; [8]): 1.53 µM (≈ 1 µg/mL); MIC (S. aureus MW2; [8]): 1.53 µM (≈ 1 µg/mL); MIC (E. cloacae 13047; [8]): >100 µM; MIC (A. baumannii 19606; [8]): 10 µM (≈ 6.55 µg/mL); MIC (K. pneumoniae 700721; [8]): >100 µM; MIC (E. coli MC4100; [8]): >200 µM; MIC (E. coli 25922; [8]): >200 µM
18 | CO[C@@H]1[C@@H](OC(N)=O)[C@@H](O)[C@H](Oc2ccc3c(O)c(NC(=O)c4cccc(Oc5ccc(C#N)cc5)c4)c(=O)oc3c2C)OC1(C)C [Compound 242] | > 100 | 77 (≈ 49.7 µg/mL) | > 100 | > 50 | > 100 | 153 (≈ 98.8 µg/mL) | 154 (≈ 99.4 µg/mL) | –
